These results are taken from US20230183266A1, “CRYSTALLINE FORMS OF RET INHIBITOR AND PREPARATION THEREOF” (LOXO ONCOLOGY, INC., priority 2021, published 2023).

Each structure is given as a SMILES string. ≈ marks a conversion by molar mass, not a printed value.

Common to all, as to format: physicochemical
A short description of series [1]: solubility of crystalline forms in organic solvents. An excerpt: Forms A and B have similar solubilities.
The nature of series [2]: solid-form stability (thermodynamic stability, form conversion on storage, isolation and drying). The source says:
(§1) In some embodiments, removal of the solvent molecule(s) from selpercatinib in solvated form can provide for selpercatinib Form A.
As noted above, selpercatinib can form solvates; and it can also form metastable solid forms, both of which are generally not stable on drying. […] The solvates and metastable forms usually revert to Form A during isolation and/or drying, although films or amorphous material occasionally form. The chloroform and 1,4-dioxane solvates were stable upon isolation/drying. Thus, one strategy for preparing selpercatinib Form A is to convert amorphous selpercatinib and/or selpercatinib Form B into a solvate and then desolvating the solvate, to afford Form A.
In one preferred embodiment, the Form A material is washed with MTBE or heptane and then dried under vacuum at a temperature of about 40 to about 45° C.
The formation of the solvate appears to remove any dependence on, or effect from, the seed crystal form.

A short description of series [3]: hygroscopicity of the anhydrous polymorphs. The conditions noted are these: Form A compared with Form B.
From the text: as §1

For `COc1ccc(CN2C3CC2CN(c2ccc(-c4cc(OCC(C)(C)O)cn5ncc(C#N)c45)cn2)C3)cn1` [Form B, 6-(2-hydroxy-2-methylpropoxy)-4-(6-(6-((6-methoxypyridin-3-yl)methyl)-3,6-diazabicyclo[3.1.1]heptan-3-yl)pyridin-3-yl)pyrazolo[1,5-a]pyridine-3-carbonitrile], the solubility in anisole result in series [1] (anisole) was “almost no solubility”.

By solubility is commonly meant the concentration that dissolves in the medium under given conditions. For `COc1ccc(CN2C3CC2CN(c2ccc(-c4cc(OCC(C)(C)O)cn5ncc(C#N)c45)cn2)C3)cn1` [Form A, 6-(2-hydroxy-2-methylpropoxy)-4-(6-(6-((6-methoxypyridin-3-yl)methyl)-3,6-diazabicyclo[3.1.1]heptan-3-yl)pyridin-3-yl)pyrazolo[1,5-a]pyridine-3-carbonitrile], the thermodynamic stability entry in series [2] (Form A compared with Form B) is listed as “thermodynamically less stable”. Moreover, the interconversion of polymorphs result in series [2] (typical storage or preparative conditions) was “do not readily inter-convert”. In addition, in series [2] (wet cake dried at 45° C., ambient pressure, over several days), the “form conversion on drying of wet cake” value is “slowly converted the Form A to Form B”. The hygroscopicity entry in series [3] is recorded as “slightly more hygroscopic”. Moreover, the “solubility in many organic solvents” value in series [1] (25° C., methyl ethyl ketone (MEK), acetone, many alcohol based solvents) is recorded as “poor”. For the same molecule, the solubility in series [1] (organic solvents: dichloromethane, dimethylsulfoxide, organic solvent or mixture, moderate solubility, 25° C., DCM, DMSO, THF) fell in the range of 3 to 30 mg/mL (≈ 5.71 to 57.1 mM).
